The record followed here is patent US10322999B2, “Oxindoles derivatives, preparation method thereof and pharmaceutical compositions for the prevention or treatment of cancer containing the same as an active ingredient” (RESEARCH & BUSINESS FOUNDATION SUNGKYUNKWAN UNIVERSITY, priority 2017, dated 2019).

As usually defined, the IC50 is the midpoint of a concentration-inhibition curve.

Test [1] relates to human prostate adenocarcinoma cell line (LNCaP). Nature of the test: MTT assay, growth inhibition of LNCaP cells. As to conditions: Homo sapiens, LNCaP. The class given is cell-based. On the procedure:
(§1) To evaluate the anticancer activity of the oxindole derivatives produced and analyzed in examples 1 to 8, MTT assay was performed to confirm the growth inhibitory effect on cancer cells. More specifically, human prostate adenocarcinoma cell line (LNCaP), human breast cancer cell line (MCF-7), human ovarian cancer cell line (SKOV3), human lung cancer cell line […] and human renal adenocarcinoma cell line (786-O) were cultured in DMEM medium supplemented with 1% penicillin/streptomycin and 10% fetal bovine serum (All from Life Technologies, Grand Island, N.Y.). Cells were seeded in 96-well plates (3×10^3 cells/well) containing 100 μL of growth medium for 24 hours. After the medium was removed, 100 μL of each of the different analogues (dissolved in DMSO to 0.025% or less) was added to each well and cultured at 37° C. for 48 hours. After 48 hours of incubation, 100 μL of MTT reagent was added to each well. After incubation at 37° C. for 4 hours, the supernatant was aspirated, and the formazan crystals were dissolved in 100 μL of DMSO at 37° C. for 10 minutes with gentle stirring. Absorbance per well was measured at 540 nm using a VERSA max microplate reader (Molecular Devices Corp.). IC50 values were defined as compound concentrations that inhibited cell proliferation by 50% compared to cells treated with the highest amount of DMSO (0.025%) and were considered to be 100% viability.
Background: Tetrazolium assays rely on reduction of a dye to a coloured formazan, in cell work by metabolically active cells.

Test [2] has as its system human ovarian cancer cell line (SKOV3). Nature of the test: MTT assay, growth inhibition of SKOV3 cells. The class given is cell-based. As for the experimental part:
as §1

Test [3] concerns human renal adenocarcinoma cell line (786-O). The experiment in a line: MTT assay, growth inhibition of 786-O cells. The class given is cell-based. The conditions noted are these: Homo sapiens. On the procedure: as §1
Test [4] concerns human lung cancer cell line (A459). Nature of the test: MTT assay, growth inhibition of A549 cells. As to conditions: Homo sapiens. The class given is cell-based. As for the experimental part:
as §1

Test [5] relates to human breast cancer cell line (MCF-7). Nature of the test: MTT assay, growth inhibition of MCF-7 cells. The class given is cell-based. As for the experimental part: as §1
For a further test, the system named is all carcinomas. The experiment in a line: MTT assay, summary over all five cancer cell lines. Type of test: cell-based, human. As to conditions: summary of Table 3, all five cell lines. On the procedure:
as §1

Where [6] appears, read: MTT, 48 hours incubation, read-out: LNCaP (IC50).
Setting [7] is: SK-OV-3, MTT, 48 hours incubation, SKOV3, read-out: SKOV3 (IC50).
[8] abbreviates: 786-0, MTT, 48 hours incubation, 786-O, read-out: 786-O (IC50).
Setting [9] is: MTT, 48 hours incubation, A549, read-out: A549 (IC50).
Where [10] appears, read: MCF7, MTT, 48 hours incubation, MCF-7, read-out: MCF-7 (IC50).

Read-outs that look alike come from different tables or passages of the source.

In the case of `CCCCOC(=O)c1[nH]c2cc(CC)ccc2c1C(=O)OCCCC` [7a, Dibutyl 6-ethyl-1H-indole-2,3-dicarboxylate], the IC50 was 14.5 µM in test [1] (setting [6]); 22.1 µM in test [2] (setting [7]); 13.2 µM in test [3] (setting [8]); 24.4 µM in test [4] (setting [9]); 20.6 µM in test [5] (setting [10]). In the test on all carcinomas, the “inhibitory activity against all carcinomas (in words)” value (“inhibitory activity” below) is “excellent”.
For the compound `CNC(=O)CC1C(=O)N(Nc2cccc(Br)c2C)c2c1ccc(Br)c2C` (stereo not shown) [3f, 2-(6-bromo-1-((3-bromo-2-methylphenyl)amino)-7-methyl-2-oxoindolin-3-yl)-N-methylacetamide], the IC50 in test [1] (setting [6]) is 12.8 µM; in test [2] (setting [7]) it was 16.9 µM; in test [3] (setting [8]), 13.3 µM; in test [4] (setting [9]), 24 µM; in test [5] (setting [10]) it was 14.8 µM. Moreover, the “inhibitory activity” value in the test on all carcinomas is recorded as “excellent”.
Turning to `CCc1ccccc1NN1C(=O)C(CC(=O)Nc2ccccc2)c2cccc(CC)c21` (stereo not shown) [4g, 2-(7-Ethyl-1-((2-ethylphenyl)amino)-2-oxoindolin-3-yl)-N-phenylacetamide], the IC50 in test [1] (setting [6]) came out at 6 µM; in test [2] (setting [7]) it was 13.8 µM; in test [3] (setting [8]), 4.8 µM; in test [4] (setting [9]), 16.8 µM; in test [5] (setting [10]) it was 9.6 µM. Further, in the test on all carcinomas, the “inhibitory activity” value is “excellent”.
For `CCCCOC(=O)CC1C(=O)N(Nc2ccccc2CC)c2c(CC)cccc21` (stereo not shown) [6b, Butyl 2-(7-ethyl-1-((2-ethylphenyl)amino)-2-oxoindolin-3-yl)acetate], the IC50 in test [1] (setting [6]) was 13.9 µM; in test [2] (setting [7]), 15.1 µM; in test [3] (setting [8]) it was 12.2 µM; in test [4] (setting [9]), 17.6 µM; in test [5] (setting [10]), 14.7 µM. Moreover, the “inhibitory activity” value in the test on all carcinomas is given as “excellent”.
With `CCc1ccccc1NN1C(=O)C(CC(=O)OCC(C)C)c2cccc(CC)c21` (stereo not shown) [6d, Isobutyl 2-(7-ethyl-1-((2-ethylphenyl)amino)-2-oxoindolin-3-yl)acetate], the IC50 in test [1] (setting [6]) was 12.5 µM; in test [2] (setting [7]) it was 14.5 µM; in test [3] (setting [8]), 12.6 µM; in test [4] (setting [9]) it was 22.5 µM; in test [5] (setting [10]), 14.2 µM. The “inhibitory activity” value in the test on all carcinomas is “excellent”.
As for `CCc1ccccc1NN1C(=O)C(CC(=O)NCc2ccccc2)c2cccc(CC)c21` (stereo not shown) [4c, N-Benzyl-2-(7-ethyl-1-((2-ethylphenyl)amino)-2-oxoindolin-3-yl)acetamide], the IC50 turned out to be 12.2 µM in test [1] (setting [6]); 20.3 µM in test [2] (setting [7]); 10.5 µM in test [3] (setting [8]); 28.9 µM in test [4] (setting [9]); 16.6 µM in test [5] (setting [10]). Besides, in the test with all carcinomas, the “inhibitory activity” value is recorded as “excellent”.
With `CCOC(=O)NC(=O)CC1C(=O)N(Nc2ccccc2CC)c2c(CC)cccc21` (stereo not shown) [4h, Ethyl (2-(7-ethyl-1-((2-ethylphenyl)amino)-2-oxoindolin-3-yl)acetyl)carbamate], the IC50 in test [1] (48 h, read-out: LNCaP (IC50, μM)) is greater than 50 µM; in test [2] (SK-OV-3, 48 h, read-out: SKOV3 (IC50, μM)) it was greater than 50 µM; in test [3] (786-0, 48 h, read-out: 786-O (IC50, μM)) it was greater than 50 µM; in test [4] (48 h, read-out: A549 (IC50, μM)), greater than 50 µM; in test [5] (MCF7, 48 h, read-out: MCF-7 (IC50, μM)), greater than 50 µM.
For the compound `CCc1ccccc1NN1C(=O)C(CC(=O)NC(=O)OC)c2cccc(CC)c21` (stereo not shown) [4i, Methyl (2-(7-ethyl-1-((2-ethylphenyl)amino)-2-oxoindolin-3-yl)acetyl)carbamate], the IC50 in test [1] (setting [6]) was 33.5 µM; in test [2] (setting [7]) it was greater than 50 µM; in test [3] (setting [8]) it was 32.6 µM; in test [4] (setting [9]), greater than 50 µM; in test [5] (setting [10]) it was greater than 50 µM.
For the compound `CNC(=O)CC1C(=O)N(Nc2cccc(Cl)c2C)c2c1ccc(Cl)c2C` (stereo not shown) [3e, 2-(6-Chloro-1-((3-chloro-2-methylphenyl)amino)-7-methyl-2-oxoindolin-3-yl)-N-methylacetamide], the IC50 stood at 15.5 µM in test [1] (setting [6]); 21.3 µM in test [2] (setting [7]); 14.7 µM in test [3] (setting [8]); 33.3 µM in test [4] (setting [9]); 20.5 µM in test [5] (setting [10]). In addition, the “inhibitory activity” value in the test with all carcinomas was “excellent”.
